Experimental data: US12454529B2, “Piperazine cyclic ureas” (SIRONAX LTD., priority 2020, dated 2025)

tested on: HT-29 cells; assay: HT-29 cell necrosis/necroptosis inhibition (TNF-α + SMAC mimetic + zVAD-FMK; CellTiter-Glo cell viability); assay type: cell-based; details: Homo sapiens; HT-29 cells, TNF-α 10 ng/ml + SMAC mimetic 6 μM + zVAD-FMK 10 μM, 20 hours; geometric mean, 10 points in duplicate; read-out: EC50 (Cell activity; Necrosis/Necroptosis Inhibitory Activity, Compounds 1-142)
Summary of the method: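 HT-29 cells (~5,000/well) were switched to FBS-free McCOY's 5A holding TNF-α (10 ng/ml), SMAC mimetic (6 μM) and zVAD-FMK (10 μM), then dosed with a 10-point 1:3 series for 20 h at 37 °C. CellTiter-Glo luminescence gave viability; geometric mean EC50 from duplicates.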

`COC(=O)c1c[nH]c(-c2ccnc(N3CCN(C(=O)N4N=CC[C@H]4c4cc(F)cc(F)c4)CC3)n2)c1` [Compound 9, methyl (5)-5-(2-(4-(5-(3,5-difluorophenyl)-4,5-dihydro-1H-pyrazole-1-carbonyl)piperazin-1-yl)pyrimidin-4-yl)-1H-pyrrole-3-carboxylate] and `Cc1n[nH]c(C)c1-c1nc(N2CCN(C(=O)N3N=CC[C@H]3c3cc(F)cc(F)c3)CC2)ncc1F` [Compound 93, (S)-(5-(3,5-difluorophenyl)-4,5-dihydro-1H-pyrazol-1-yl)(4-(4-(3,5-dimethyl-1H-pyrazol-4-yl)-5-fluoropyrimidin-2-yl)piperazin-1-yl)methanone] fall in the same range of EC50: 0.1 to 100 nM for the first, 0.1 to 100 nM for the second.

`Cc1nn(C)cc1-c1nc(N2CCN(C(=O)N3N=CC[C@H]3c3cc(F)cc(F)c3)CC2)ncc1F` [Compound 14, (S)-(5-(3,5-difluorophenyl)-4,5-dihydro-1H-pyrazol-1-yl)(4-(4-(1,3-dimethyl-1H-pyrazol-4-yl)-5-fluoropyrimidin-2-yl)piperazin-1-yl)methanone] gave an EC50 of 0.1 to 100 nM.

same assay, conditions: Homo sapiens; HT-29 cells, TNF-α 10 ng/ml + SMAC mimetic 6 μM + zVAD-FMK 10 μM, 20 hours; geometric mean, 10 points in duplicate; read-out: EC50 (Cell activity; Necrosis/Necroptosis Inhibitory Activity, Compounds 143-323)

`Cc1nc(CO)nn1-c1nc(N2CCN(C(=O)N3N=CC[C@H]3c3cc(F)cc(C#N)c3)CC2)ncc1F` [Compound 144, (S)-3-fluoro-5-(1-(4-(5-fluoro-4-(3-(hydroxymethyl)-5-methyl-1H-1,2,4-triazol-1-yl)pyrimidin-2-yl)piperazine-1-carbonyl)-4,5-dihydro-1H-pyrazol-5-yl)benzonitrile] and `Cc1cc(C(F)(F)F)nn1-c1nc(N2CCN(C(=O)N3N=CC[C@H]3c3cc(F)cc(F)c3)CC2)ncc1F` [Compound 196, (S)-(5-(3,5-difluorophenyl)-4,5-dihydro-1H-pyrazol-1-yl)(4-(5-fluoro-4-(5-methyl-3-(trifluoromethyl)-1H-pyrazol-1-yl)pyrimidin-2-yl)piperazin-1-yl)methanone] fall in the same range of EC50: 0.1 to 100 nM for the first, 0.1 to 100 nM for the second.

`Cc1ncc(C2CC=NN2C(=O)N2CCN(c3nc(-c4c(C)cnn4C)ccc3F)CC2)s1` (centres unmarked) [Compound 270, (4-(6-(1,4-dimethyl-1H-pyrazol-5-yl)-3-fluoropyridin-2-yl)piperazin-1-yl)(5-(2-methylthiazol-5-yl)-4,5-dihydro-1H-pyrazol-1-yl)methanone] and `Cc1cnn(C)c1-c1ncc(F)c(N2CCN(C(=O)N3N=CC[C@H]3c3cc(F)cc(F)c3)CC2)n1` [Compound 301, (S)-(5-(3,5-difluorophenyl)-4,5-dihydro-1H-pyrazol-1-yl)(4-(2-(1,4-dimethyl-1H-pyrazol-5-yl)-5-fluoropyrimidin-4-yl)piperazin-1-yl)methanone] fall in the same range of EC50: 0.1 to 100 nM for the first, 0.1 to 100 nM for the second.

First: Cc1nc(C)n(-c2nc(N3CCN(C(=O)N4N=CCC4c4cscn4)CC3)ncc2F)n1 (centres unmarked) [Compound 212, (4-(4-(3,5-dimethyl-1H-1,2,4-triazol-1-yl)-5-fluoropyrimidin-2-yl)piperazin-1-yl)(5-(thiazol-4-yl)-4,5-dihydro-1H-pyrazol-1-yl)methanone]
Second: Cc1nc(C)n(-c2nc(N3CCN(C(=O)N4N=CC[C@@H]4c4ncc(C)s4)CC3)ncc2F)n1 [Compound 242, (R)-(4-(4-(3,5-dimethyl-1H-1,2,4-triazol-1-yl)-5-fluoropyrimidinyl)piperazin-1-yl)(5-(5-methylthiazol-2-yl)-4,5-dihydro-1H-pyrazol-1-yl)methanone]
The EC50 of the first is higher: 100 to 1000 nM for the first, 0.1 to 100 nM for the second.

Compared with `Cc1nc(C)n(-c2ncc(F)c(N3CCN(C(=O)N4N=CCC4c4ncccc4Cl)CC3)n2)n1` (centres unmarked) [Compound 263, (5-(3-chloropyridin-2-yl)-4,5-dihydro-1H-pyrazol-1-yl)(4-(2-(3,5-dimethyl-1H-1,2,4-triazol-1-yl)-5-fluoropyrimidin-4-yl)piperazin-1-yl)methanone], `Cc1cnn(C)c1-c1nc(N2CCN(C(=O)N3N=CC[C@H]3c3cc(F)cc(C#N)c3)CC2)sc1CO` [Compound 266, (S)-3-(1-(4-(4-(1,4-dimethyl-1H-pyrazol-5-yl)-5-(hydroxymethyl)thiazol-2-yl)piperazine-1-carbonyl)-4,5-dihydro-1H-pyrazol-5-yl)-5-fluorobenzonitrile] is higher in EC50: 100 to 1000 nM for the first, 1000 to 10000 nM for the second. The first is the more potent here.
